# In paper PMC7460544, “Prenylated Flavonoids from the Roots of Tephrosia rhodesica” (Journal of Natural Products, 2020):
# Experiments:
# [1] = system: chloroquine-sensitive (3D7) strain of Plasmodium falciparum; assay: asexual P. falciparum imaging growth inhibition assay (antiplasmodial activity); assay type: cell-based; details: for antiplasmodial activity in words: P. falciparum 3D7
# [2] = system: HEK 293 mammalian cells; assay: cytotoxicity against HEK 293 mammalian cells (LD50); assay type: cell-based; details: single experiment
smiles,measurement,setting,value
"CC(C)=CCC1(CC=C(C)C)C(=O)[C@](O)(CC=C(C)C)C(=O)C2=C1O[C@H](c1ccccc1)C[C@H]2O [Rhodiflavan B (3), 4,6-dihydroxy-6,8,8-tris(3-methylbut-2-en-1-yl)-2-phenyl-2,3,4,8-tetrahydro-5H-chromene-5,7(6H)-dione]",antiplasmodial activity in words,[1],moderate activities
same,"LD50 (HEK-293), given as % at 40 μM",[2],34% at 40 μM
"CCN(CC)CCCC(C)Nc1ccnc2cc(Cl)ccc12 (stereo not drawn) [Chloroquine, reference compound]",IC50,"[1]; Plasmodium falciparum, 3D7, read-out: IC50, μM (Pf3D7)",0.0047 µM
"C=C(C)[C@H]1Cc2c(ccc3c2O[C@@H]2C(O)Oc4cc(OC)c(OC)cc4[C@@H]2C3=O)O1 (stereo partly drawn) [6-Hydroxyrotenone (15), 6-hydroxyrotenone]",antiplasmodial activity in words,[1],moderate activities
same,LD50 (HEK-293),[2],10.9 µM
"CC(C)=CCC1(CC=C(C)C)C(=O)C(=O)C2=C1O[C@H](c1ccccc1)C[C@H]2O (relative stereo) [Rhodiflavan C (4), (2S*,4R*)-4-hydroxy-7,7-bis(3-methylbut-2-en-1-yl)-2-phenyl-2,3,4,7-tetrahydrocyclopenta[b]pyran-5,6-dione]",antiplasmodial activity in words,[1],moderate activities
same,"LD50 (HEK-293), given as % at 40 μM",[2],101% at 40 μM
"COc1cc(OC)c2c(c1CC=C(C)C)O[C@H](c1ccccc1)C[C@H]2OC [Quercetol B (9), quercetol B]",antiplasmodial activity in words,[1],moderate activities
same,"LD50 (HEK-293), given as % at 40 μM",[2],87% at 40 μM
"CC(C)=CCC1(CC=C(C)C)C(=O)[C@@](O)(CC=C(C)C)C(=O)C2=C1O[C@H](c1ccccc1)C[C@H]2O [Rhodiflavan A (2), 4,6-dihydroxy-6,8,8-tris(3-methylbut-2-en-1-yl)-2-phenyl-2,3,4,8-tetrahydro-5H-chromene-5,7(6H)-dione]",antiplasmodial activity in words,[1],moderate activities
"CC(C)=CCc1cc2c(cc1O)OC[C@@]1(O)c3cc4c(cc3O[C@@H]21)OCO4 [Rhodacarpin (5), (6aS,12aS)-2-(3-methylbut-2-en-1-yl)-6H-[1,3]dioxolo[4′,5′:5,6]benzofuro[3,2-c]chromene-3,6a(12aH)-diol]",antiplasmodial activity in words,[1],moderate activities
same,"LD50 (HEK-293), given as % at 40 μM",[2],27% at 40 μM
